Columns and labels:
[1] = tested on: c-Myc; assay: Immunoblotting of degronimid-treated MM.1S cells: c-Myc; assay type: cell-based, human; details: 0.01-1 μM, 4 h
Method: MM.1S cells were seeded in 6-well plates at 3×10^6 cells/well (˜24 h prior to addition of drug). […] Cell pellets were thawed on ice, lysed using RIPA buffer (ThermoFisher) with protease/phosphatase inhibitor cocktail (Cell Signal Technology, Danvers, Mass.) by incubating on ice 30 min. The lysates were clarified by spinning at 10,000 g for 10 min at 4° C. and the concentration of the lysate was determined using BCA protocol (ThermoFisher). Samples were prepared for Western blot using LDS sample buffer (NuPage, Invitrogen, Carlsbad, Calif., USA) with sample reducing agent (NuPage, Invitrogen) and heated to 95° C. for 5 min. Samples were loaded (20 ug/sample) into Tris-acetate or Bis-Tris gels (NuPage, Invitrogen) and run as per kit instructions using appropriate running buffers. Gels were transferred as described (Matthews et al., 2015) onto PVDF membrane using SDS-based transfer buffer (NuPage, Invitrogen). Membranes were blocked (5% skim milk; or 5% bovine serum albumin in TBS-T) for at least 30 min then probed with primary antibodies overnight (4° C.). […] Each protein of interest (BRD2, BRD3, BRD4, c-myc and CDK9) was assessed in a separate gel and corresponding membrane (which was simultaneously incubated with antibodies for both the target protein of interest and GAPDH, to provide a loading control within the same blot). […]

[2] = tested on: MM; details: cited from earlier work
[3] = tested on: MM.1S cells; assay: CTG viability of CRISPR-edited MM.1S pools tolerant to bortezomib or JQ1; assay type: cell-based, human; details: after genome-scale gene editing and treatment with JQ1 (500 nM) or bortezomib (25 nM)
Method: Cell viability and growth of human MM cell lines were assessed using CellTitre-Glo (CTG) assay (Promega, Madison, Wis.) per kit instructions, or CS-BLI as described (Delmore et al., 2011). Briefly, cells were seeded (5×10^3 cells/well) into 96- or 384-well opaque plates, in supplemented media (40 or 50 uL) and incubated for 24 h prior to addition of drug. For co-culture experiments, HS27A cells were pre-seeded (5×10^3 cells/well) into each well in media prior (24 h) to the addition of MM cells. At each time point (24 h, 48 h, and/or 72 h) CTG reagent (10% volume) was added to each well, and plates were read using a microplate reader (BioTek Synergy 2, BioTek, Winooski, Va.).
(§1) iii. […] Following treatments, all cells were serially cultured without drug and allowed to regrow for as long as required to enable reseeding (60×10^6 cells per flask, 100 mL) and retreatment with individual drugs while maintaining ˜1000× coverage throughout. Concomitant with retreatment, remaining cells were frozen (−80° C.; 20% FBS/DMSO) for later analysis or assessed for drug resistance/sensitivity using CTG assays. Between treatments, and in order to maintain the health of cultures, dead cells were periodically removed using Ficoll centrifugation (1,500 rpm for 10-20 min). For all CRISPR drug treatment experiments, aliquots of MM.1S-Cas9+ cells transduced with the GeCKO(Sanjana et al., 2014; Shalem et al., 2014) or Brunello (Doench et al., 2016) sgRNA libraries were frozen immediately prior to experimentation to determine the baseline distribution of sgRNAs in the cell population.

[4] = tested on: MM.1S Cas9+ cells; assay: Dose-response assay of cells with individual sgRNA knock-outs, CTG; assay type: cell-based, human; details: compared to parental MM.1S cells
Method: Non-targeting control sgRNAs and COPS7B sgRNAs were from GeCKOv2. Four sgRNAs were generated per each gene, except from COPS7B, for which 6 sgRNAs were available (Table S2). All sgRNAs were synthesized by CustomArray Inc (Bothell, Wash.). Cloning was performed according to the protocol published by Zhang et al. (media.addgene.org/cms/filer_public/4f/ab/4fabc269-56e2-4ba5-92bd-09dc89c1e862/zhang_lenticrisprv2_and_lentiguide_oligo_cloning_protocol_1.pdf) using a pHKO9 vector. Briefly, to clone the sgRNA guide sequence, plasmids were digested with BsmBI (New England Biolabs, Ipswich, Mass.) at 55° C. for 1 hour. Oligonucleotides for each sgRNA guide sequence were annealed and phosphorylated using T4 Ligation Buffer and T4 polynucleotide kinase (New England Biolabs) at 37° C. for 30 minutes and then annealed by heating to 95° C. for 5 minutes and cooling to 25° C. at 1.5° C./minute. Using T4 ligation buffer and T4 ligase (New England Biolabs), annealed oligos were ligated into gel purified vectors (Qiagen) at 65° C. for 10 minutes. 2.5 ug of the ligation product were transformed in 30 uL E. coli electrocompetent cells (Lucigen E.cloni 10 G ELITE PLUS, Invitrogen). Subsequently, 500 uL of transformed cells were plated on LB Agar-AmpR (ThermoFisher Scientific) and incubated overnight at 37° C. Three colonies per plate were then picked and inoculated in a mini-prep culture (Qiagen). The product was then digested with BsmBI and XhoI (New England Biolabs) at 37° C. for 1 h and compared to the uncut control on 1% agarose gel. One out of three colonies (10 uL) was then precultured in 3 mL LB Broth-AmpR and shaken at 37° C. for 6 h. Afterwards it was transferred to a 250 mL LB Broth-AmpR flask and incubated overnight at 37° C. Each culture was then inoculated into a maxiprep culture (Qiagen).
Also, CRBN, VHL, TCEBJ, TCEB2, UBE2R2 and FBXW2 sgRNA are selected from Brunello library and cloned using pLVX-hyg-sgRNA1 Vector system (Takara Bio USA, CA) according to the manufacturer's manual. b(takarabio.com/assets/documents/User %20Manual/Lenti-X_CRISPR-Cas9_System_User_Manual_121316.pdf)
ii. Lentiviral transductions with constructs for individual sgRNAs: 500×10^3 to 1×10^6 MM.1S Cas9 cells were plated in 50 uL of complete RPMI1640 medium per well in a 24-well plate, and additional 100 uL of complete RPMI1640 medium were added to cover the well completely. Cells were incubated in cell medium containing polybrene (5 to 8 μg/mL; Santa Cruz Biotechnology), and viral prep. 24 hours after addition of viral preps, media were changed and, after another 48 h, puromycin selection (1 to 2 ug/ml per well) was started. After 7 days of puromycin selection, transduced MM.1S Cas9+ cells were collected and expanded in T75 flasks.
iii. […] In the case of Thal-SNS-032 or ARV771, cells are plated 384-well plate and treated each concentration described at figure and viability assays were performed at 72 hrs.

[5] = tested on: MM.1S-Cas9+ cells; assay: Genome-scale CRISPR/Cas9 gene editing (LOF) resistance screens; assay type: cell-based, human; details: long-term treatment; NGS of sgRNAs
Method: MM.1S cells transduced with lentiviral construct for SpCas9 were kindly provided from Quinlan Sievers (Ebert Lab, BWH/DFCI). MM.1S cells were also transduced with lentiviral construct for dCas9-VP64 (purchased from Addgene).
ii. Lentiviral transductions with sgRNA libraries: For the screen with the GECKOv2 sgRNA library, tumor cell transductions were performed in batches of 8×10^7 cells per sub-library for each replicate. Cells were incubated for 16 hrs in cell medium containing polybrene (2 μg/mL; Santa Cruz Biotechnology), 10 mM HEPES (pH 7.4) (Sigma-Aldrich) and viral prep (4 mL) diluted to achieve an MOI of 0.4. After the end of the incubation with the viral preps, cells were washed and incubated for an additional day. Transduced cells were cultured at an initial density of 1×10^6 cells/mL and were treated with puromycin (1 μg/mL) for up to 14 days immediately after transduction. After puromycin selection, MM.1S-Cas9^+ cells transduced with each GeCKOv2 sublibrary were plated at 60×10^6 cells per flask (T175, 100 mL) to enable coverage of ˜1000× and were sub-cultured at four to five-day intervals to prevent confluence. At each passage, cells were harvested, washed with PBS (Corning, N.Y.), pelleted (5000 rpm, 5 min, 4° C.) and frozen as cell pellets (−80° C.) for next generation sequencing, and also replated at 60×10^6 cells to maintain 1000× coverage.
For the genome-scale screens with the Brunello sgRNA library, tumor cell transductions were performed in batches of 5×10^7 cells per library for six replicates. Cells were incubated (18 h) in cell medium containing polybrene (5 μg/mL; Santa Cruz Biotechnology), 10 mM HEPES (pH 7.4) (Sigma-Aldrich) and viral prep (30 mL) diluted 1:1. Transduced cells were cultured at an initial density of 1×10^6 cells/mL and were treated with puromycin (1 μg/mL) for up to 5 days additional two days from transduction. After stable transduction, pooled MM.1S cells were plated at 40×10^6 cells per flask (T175, 100 mL) to enable coverage of 500× and were sub-cultured at three- to four day intervals to prevent confluence. At each passage, cells were harvested, washed with PBS (Corning), pelleted (5000 rpm, 5 min, 4° C.) and frozen as cell pellets (−80° C.) for next generation sequencing, and also replated at 40×10^6 cells (˜500× coverage).
as §1
For “long-term” treatment screens with Thal-SNS-032-, ARV-771- and MZ-1-resistant cells, we continuously treated MM.1S-Cas9+ cells (40×10^6, —500× coverage) transduced with the Brunello sgRNA library (4 weeks post-puromycin selection) with either each compound's (IC20) or vehicle control. Cells were serially passaged every 3-4 days to prevent confluence, each time replating at ˜500× coverage (100 mL) at the same time replenishing each compound or vehicle. Drug treatments were paused if cell numbers fell below 10×10^6 per flask, allowing cells to recover and regrow, and treatments were resumed at a lower concentration when cell numbers reached 40×10^6. At each passage, cells were assayed for drug sensitivity/resistance using CTG. […]

[6] = tested on: pools of MM cells; assay: Sequential exposure to CRBN- and VHL-based degraders, CTG; assay type: cell-based, human; details: compared to treatment-naïve cells
Text: We addressed this question using pools of MM cells derived from several of our genome-scale CRISPR-based screens.

| SMILES | c-Myc protein levels [1] | induction of apoptosis ([2]; most cell types tested) | anti-tumor activity ([2]; preclinical in vitro and in vivo models of MM) | responsiveness of drug-exposed pools to the same agent [3] | response of cells with sgRNAs against COPS7B or COPS8 [4] | sgRNA enrichment in resistant cells, long-term screen [5] | shift of dose response curve in pools previously exposed to CRBN-based degraders [6] |
| --- | --- | --- | --- | --- | --- | --- | --- |
| Cc1sc2c(c1C)C(c1ccc(Cl)cc1)=N[C@@H](CC(=O)OC(C)(C)C)c1nnc(C)n1-2 [JQ1] | less pronounced depletion of c-Myc | does not induce apoptosis in most cell types tested | has anti-tumor activity | decreased responsiveness | – | – | – |
| Cc1ncsc1-c1ccc(CNC(=O)[C@@H]2C[C@@H](O)CN2C(=O)[C@@H](NC(=O)COCCOCCOCCNC(=O)C[C@@H]2N=C(c3ccc(Cl)cc3)c3c(sc(C)c3C)-n3c(C)nnc32)C(C)(C)C)cc1 [MZ-1] | – | – | – | – | decreased response | enrichment of sgRNAs for CUL2, VHL itself | limited, if any, shift |
| CC(C)C[C@H](NC(=O)[C@H](Cc1ccccc1)NC(=O)c1cnccn1)B(O)O [bortezomib] | – | – | – | decreased responsiveness | – | – | – |

From patent US20220288051A1, “METHODS FOR TREATING CANCER USING SERIAL ADMINISTRATION OF E3 UBIQUITIN LIGASE DEGRADERS” (Dana-Farber Cancer Institute, Inc., priority 2019, published 2022)
